System: 233499-124-R-J3-PDC complex spheroid viability
Assay: Anticancer human tumor 233499-124-R-J3-PDC patient-derived colon adenocarcinoma cell line growth inhibition [CLK]
Conditions: for viability, T/C: stronger effect = lower value; active = viability on the fitted dose curve at most 10% of control; inactive = the rest
How it was run: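 Patient-derived tumor cells grown as complex spheroids with HUVEC endothelial cells and mesenchymal stem cells, treated with drug combinations. Concentrations descend in half-log steps from near clinical Cmax, or from 10 microM if Cmax unknown.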

[1] = curve of first compound, second compound 0.0316 µM
[2] = curve of first compound, second compound 0.1 µM
[3] = curve of first compound, second compound 0.316 µM
[4] = curve of first compound, second compound 1 µM
[5] = curve of first compound, second compound 3.16 µM
[6] = curve of first compound, second compound 10 µM
[7] = second compound 0.0316 µM, first compound 0.0316 µM
[8] = second compound 0.0316 µM, first compound 0.1 µM
[9] = second compound 0.0316 µM, first compound 0.316 µM
[10] = second compound 0.0316 µM, first compound 1 µM
[11] = second compound 0.0316 µM, first compound 3.16 µM
[12] = second compound 0.0316 µM, first compound 10 µM
[13] = second compound 0.1 µM, first compound 0.0316 µM
[14] = second compound 0.1 µM, first compound 0.1 µM
[15] = second compound 0.1 µM, first compound 0.316 µM
[16] = second compound 0.1 µM, first compound 1 µM
[17] = second compound 0.1 µM, first compound 3.16 µM
[18] = second compound 0.1 µM, first compound 10 µM
[19] = second compound 0.316 µM, first compound 0.0316 µM
[20] = second compound 0.316 µM, first compound 0.1 µM
[21] = second compound 0.316 µM, first compound 0.316 µM
[22] = second compound 0.316 µM, first compound 1 µM
[23] = second compound 0.316 µM, first compound 3.16 µM
[24] = second compound 0.316 µM, first compound 10 µM
[25] = second compound 1 µM, first compound 0.0316 µM
[26] = second compound 1 µM, first compound 0.1 µM
[27] = second compound 1 µM, first compound 0.316 µM
[28] = second compound 1 µM, first compound 1 µM
[29] = second compound 1 µM, first compound 3.16 µM
[30] = second compound 1 µM, first compound 10 µM
[31] = second compound 3.16 µM, first compound 0.0316 µM
[32] = second compound 3.16 µM, first compound 0.1 µM
[33] = second compound 3.16 µM, first compound 0.316 µM
[34] = second compound 3.16 µM, first compound 1 µM
[35] = second compound 3.16 µM, first compound 3.16 µM
[36] = second compound 3.16 µM, first compound 10 µM
[37] = second compound 10 µM, first compound 0.0316 µM
[38] = second compound 10 µM, first compound 0.1 µM
[39] = second compound 10 µM, first compound 0.316 µM
[40] = second compound 10 µM, first compound 1 µM
[41] = second compound 10 µM, first compound 3.16 µM
[42] = second compound 10 µM, first compound 10 µM
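Also: spheroids exposed to the drug combinations for seven days.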
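For viability, T/C in this document: percent viability relative to DMSO vehicle control wells taken as 100%.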

CC(CO)NC(=O)c1cc(-c2ccc(Cl)cc2)nn(-c2cnn(C)c2)c1=O (stereo not given) + CNC(=O)c1ccc(Nc2nc(OC3CCCC3)c3c(-c4ccc5nc(C)oc5c4)c[nH]c3n2)c(OC)c1
> 10 µM: IC50 [1] | IC50 [2] | IC50 [3] | IC50 [4] | IC50 [5] | IC50 [6]
inactive: viability, T/C [7] 94.6% | viability, T/C [8] 98.2% | viability, T/C [9] 90.1% | viability, T/C [10] 94.6% | viability, T/C [11] 94% | viability, T/C [12] 88.9% | viability, T/C [13] 83.5% | viability, T/C [14] 84.7% | viability, T/C [15] 71.9% | viability, T/C [16] 80.6% | viability, T/C [17] 87.8% | viability, T/C [18] 61.9% | viability, T/C [19] 91.4% | viability, T/C [20] 64.6% | viability, T/C [21] 88.5% | viability, T/C [22] 83.9% | viability, T/C [23] 83.5% | viability, T/C [24] 66.6% | viability, T/C [25] 84.3% | viability, T/C [26] 85% | viability, T/C [27] 86.5% | viability, T/C [28] 86.7% | viability, T/C [29] 81.9% | viability, T/C [30] 79.2% | viability, T/C [31] 84.6% | viability, T/C [32] 59.3% | viability, T/C [33] 62.4% | viability, T/C [34] 83.3% | viability, T/C [35] 83.7% | viability, T/C [36] 70.8% | viability, T/C [37] 68.6% | viability, T/C [38] 73.9% | viability, T/C [39] 69.8% | viability, T/C [40] 72.2% | viability, T/C [41] 69.7% | viability, T/C [42] 64.2%

CN1CCN(c2cc(C(=O)Nc3cc4cc(-c5cnn(C)c5)ccc4cn3)ccn2)CC1
active: viability, T/C (compound 1 µM) 1.16% [middle of 11 runs] | viability, T/C (compound 3.16 µM) 0.72% [middle of 10 runs] | viability, T/C (compound 10 µM) 0.46% [middle of 10 runs]
529 nM [middle of 10 runs]: IC50 (compound alone, run of 07/31/2023)

CNC(=O)c1ccc(Nc2nc(OC3CCCC3)c3c(-c4ccc5nc(C)oc5c4)c[nH]c3n2)c(OC)c1
> 10 µM: IC50 (compound alone, run of 08/01/2023)
inactive: viability, T/C (compound 0.0316 µM) 93.9% [middle of 12 runs] | viability, T/C (compound 0.316 µM) 74% [middle of 12 runs] | viability, T/C (compound 3.16 µM) 75.3% [middle of 12 runs] | viability, T/C (compound 10 µM) 72.6% [middle of 12 runs]

C#Cc1c(F)ccc2cc(O)cc(-c3ncc4c(N5CC6CCC(C5)N6)nc(OCC56CCCN5CC(F)C6)nc4c3F)c12 (stereo not given) + CNC(=O)c1ccc(Nc2nc(OC3CCCC3)c3c(-c4ccc5nc(C)oc5c4)c[nH]c3n2)c(OC)c1
5.76 µM: IC50 [6]
inactive: viability, T/C [7] 98.8% | viability, T/C [8] 98.2% | viability, T/C [9] 86.5% | viability, T/C [10] 91% | viability, T/C [11] 75.9% | viability, T/C [12] 88.7% | viability, T/C [13] 76.5% | viability, T/C [14] 62.8% | viability, T/C [15] 72.7% | viability, T/C [16] 75.8% | viability, T/C [17] 74.3% | viability, T/C [18] 57.7% | viability, T/C [19] 90.3% | viability, T/C [20] 74.9% | viability, T/C [21] 85.3% | viability, T/C [22] 68.3% | viability, T/C [23] 74.8% | viability, T/C [24] 55% | viability, T/C [25] 78.3% | viability, T/C [26] 78.9% | viability, T/C [27] 68.4% | viability, T/C [28] 56.8% | viability, T/C [29] 81.4% | viability, T/C [30] 55.2% | viability, T/C [31] 54.4% | viability, T/C [32] 73.1% | viability, T/C [33] 52.8% | viability, T/C [34] 70.8% | viability, T/C [35] 68.3% | viability, T/C [36] 53% | viability, T/C [37] 75.5% | viability, T/C [38] 77.7% | viability, T/C [39] 68.8% | viability, T/C [40] 68.4% | viability, T/C [41] 60.9% | viability, T/C [42] 40.6%
> 10 µM: IC50 [1] | IC50 [2] | IC50 [3] | IC50 [4] | IC50 [5]

CC(Nc1ccc2c(c1)OCCn1cc(N3C(=O)OCC3C(F)F)nc1-2)C(N)=O (stereo not given)
inactive: viability, T/C (compound 0.0316 µM) 94% | viability, T/C (compound 0.1 µM) 83.7% | viability, T/C (compound 0.316 µM) 79.8% | viability, T/C (compound 1 µM) 74.8% | viability, T/C (compound 3.16 µM) 61.7% | viability, T/C (compound 10 µM) 51.9%
> 10 µM: IC50 (curve of compound)

— PubChem BioAssay AID2060613 (Molecular Pharmacology Branch, DTP, NCI, 2025)
